Results as given in patent US5972963A, “3-aryl-2-(1-substituted 4-piperidinyl)-1,1-dioxo-3H-benzo[D]isothiazoles and related compounds” (Hoechst Marion Roussel, Inc., priority 1997, dated 1999).
Where a name gives a salt, the structure may show the parent alone. Read-outs that look alike come from different tables or passages of the source.

Assays:
[1] = tested on: norepinephrine (NE) uptake, rat whole brain synaptosomes; experiment: Inhibition of [^3 H]-Norepinephrine Uptake in Rat Whole Brain or Hypothalamic Synaptosomes; format: biochemical; settings: at 3.16 μmn
Procedure: Inhibition of [^3 H]-Norepinephrine Uptake in Rat Whole Brain or Hypothalamic Synaptosomes
This assay is used as a biochemical screen for potential antidepressants which block norepinephrine uptake.
(§1) A. Animals: Male CR Wistar rats (100-125 g).
3. L(-)-Norepinephrine bitartrate is obtained from Sigma Chemical Co. A 0.1 mM stock solution is made up in 0.01 N HCl. This is used to dilute the specific activity of theradiolabeled NE.
4. Levo-[Ring-2,5,6-^3 H]-Norepinephrine (40-50 Ci/mmol) is obtained from New England Nuclear.
The final desired concentration of [^3 H]-NE in the assay is 50 nM. The dilution factor is 0.8. Therefore, the KHBB is made up to contain 62.5 nM [^3 H]-NE.
(§2) 5. For most assays, a 1 mM stock solution of the test compound is made up in a suitable solvent and serially diluted such that the final concentration in the assay ranges from 2×10^-8 to 2×10^-5 M. Seven concentrations are used for each assay. Higher or lower concentrations may be used depending on the potency of the compound.
Male Wistar rats are decapitated and the brain rapidly removed. Either whole brain minus cerebella or hypothalamus is weighed and homogenized in 9 volumes of ice-cold 0.32 M sucrose using a Potter-Elvejhem homogenizer. Homogenization should be done with 4-5 up and down strokes at medium speeds to minimize synaptosome lysis. TH homogenate is centrifuged at 1000 g for 10 minutes at 0°-4° C. The supernatant (S1) is decanted and is used for uptake experiments.
(§3) 20 μl Vehicle or appropriate drug concentration
Tubes are incubated at 37° C., under a 95% O2 /5% CO2 atmosphere for 5 minutes. For each assay, 3 tubes are incubated with 20 μl of vehicle at 0° C. in a ice bath. After incubation all tubes are immediately centrifuged at 4000 g for 10 minutes. The supernatant fluid is aspirated and the pellets dissolved by adding 1 ml of solubilizaer (Triton X-100+50% EtOH, 1:4 v/v). The tubes are vigorously vortexed, decanted into scientillation vials, and counted in 10 ml of Liquiscint scintillation countering cocktail. Active uptake is the difference between cpm at 37° C. and 0C. The percent inhibition at each drug concentration is the mean of three determinations IC50 values are derived from log-probit analysis.

[2] = tested on: serotonin (5HT) uptake, rat whole brain synaptosomes; experiment: Inhibition of [^3 H]-Serotonin Uptake in Rat Whole Brain Synaptosomes; format: biochemical; settings: at 3.16 μmn
Procedure: Inhibition of [^3 H]-Serotonin Uptake in Rat Whole Brain Synaptosomes
This assay is used a biochemical screen for compounds which block serotonin (5 HT) uptake, which may be useful as antidepressants and for the treatment of personality disorders such as obsessive compulsive disorder.
as §1
3. Serotonin creatinine SO4 is obtained from Sigma Chemical Co. A 0.1 mM stock solution is made up in 0.01 N HCl. This is used to dilute the specific activity of radiolabeled 5 HT.
4. 5-[1,2-^3 H(N)]-Hydroxytryptamine creatinine sulfate (Serotonin), specific activity 20-30 Ci/mmol is obtained from New England Nuclear.
The final desired concentration of ^3 H-5 HT in the assay is 50 nM. The dilution factor is 0.8. Therefore, the KHBB is made up to contain 62.5 nM [^3 H]-5 HT.
5. For most assays, a 1 mM solution of the test compound is made up in suitable solvent and serially diluted such that the final concentration in the assay ranges from 2×10^-8 to 2×10^-5 M. Seven concentrations are used for each assay. Higher or lower concentrations may be used depending on the potency of the compound.
Male Wistar rats are decapitated and the brain rapidly removed. Whole brain minus cerebella is weighed and homogenized in 9 volumes of ice-cold 0.32 M sucrose using a Potter-Elvejhem homogenizer. Homogenization should be done with 4-5 up and down strokes at medium speeds to minimize synaptosome lysis. The homogenate is centrifuged at 1000 g for 10 minutes at 0°-4° C. The supernatant (S1) is decanted and is used for uptake experiments.
800 μl KHBB +[^3 H]-5 HT.
as §3
(§4) Tubes are incubated at 37° C. under a 95% O2 /5% CO2 atmosphere for 5 minutes. For each assay, 3 tubes are incubated with 20 μl of vehicle at 0° C. in an ice bath. After incubation all tubes are immediately centrifuged at 4000 g for 10 minutes. The supernatant fluid is aspirated and the pellets dissolved by adding 1 ml of solubilizer (Triton X-100+50% EtOH, 1:4 v/v). The tubes are vigorously vortexed, decanted into scintillation vials, and counted in 10 ml of Liquiscint scintillation counting cocktail. Active uptake is the difference between cpm at 37° C. and 0° C. The percent inhibition at each drug concentration is the mean of three determinations. IC50 values are derived from log-probit analysis.

[3] = tested on: dopamine (DA) uptake, rat striatal synaptosomes; experiment: Inhibition of ^3 H-Dopamine Uptake in Rat Striatal Synaptosomes; format: biochemical; settings: at 3.16 μmn; head: whole brain synaptosomes, protocol: striatal synaptosomes
Procedure: Inhibition of ^3 H-Dopamine Uptake in Rat Striatal Synaptosomes
this assay is used to show differential drug effects on dopamine uptake versus nerepppinephrine uptake and to identify therapeutic agents for diseases where the potentiation of dopaminergic activity may be helpful (e.g. Parkinson's Disease).
as §1
3. Dopamine HCl is obtained from Sigma Chemical Co. A 0.1 mM stock solution is made up in 0.01 N HCl. This is used to dilute the specific activity of radiolabeled 5 HT.
4. 3,4-[8-^3 H(N)]-Dihydroxyphenylethylamine (Dopamine), specific activity 4-34 Ci/mmol is obtained from New England Nuclear.
The final desired concentration of ^3 H-DA in the assay is 50 nM. The dilution factor is 0.9. Therefore, the KHBB is made up to contain 55.5 nM [^3 H]-5 DA.
as §2
Male Wistar rats are decapitated and the brain rapidly removed. Corpora striata are rapidly removed, weighed and homogenized in 9 volumes of ice-cold 0.32 M sucrose using a Potter-Elvejhem homogenizer. Homogenization should be done with 4-5 up and down strokes at medium speeds to minimize synaptosome lysis. The homogenate is centrifuged at 1000 g for 10 minutes at 0°-4° C. The supernatant (S) is decanted and is used for uptake experiments.
as §3, §4

[4] = tested on: dopamine (DA) uptake; settings: cited from earlier work
[5] = tested on: 5 HT uptakes sites; settings: in vitro receptor binding, literature; cited from earlier work
[6] = tested on: norepinephrine (NE) uptake; settings: literature; cited from earlier work
[7] = tested on: serotonin (5 HT) uptake; settings: literature; cited from earlier work

| SMILES | % inhibition NE [1] [%] | % inhibition 5HT [2] [%] | % inhibition DA [3] [%] | DA uptake inhibition ([4]; literature) | NE uptake inhibition [6] | further results |
| --- | --- | --- | --- | --- | --- | --- |
| COc1cc(C(C)=O)ccc1OCCCN1CCC(N2C(c3ccc(Cl)cc3)c3ccccc3S2(=O)=O)CC1 (centres unmarked) [1-[4-(3-{4-[3-(4-Chlorophenyl)-1,1-dioxo-3H-benzo[d]isothiazol-2-yl]-1-piperidin-1-yl}-propoxy)-3-methoxyphenyl]-ethanone maleate] | 55.23 | 48.78 | 67.94 | – | – | – |
| C[C@@H](N)Cc1ccccc1 [1-amphetamine] | – | – | – | no stereo selectivity for the inhibition of DA uptake | – | – |
| O=C(O)/C=C\C(=O)O.O=C1c2ccccc2C(=O)N1CCCN1CCC(N2C(c3ccc(Cl)cc3)c3ccccc3S2(=O)=O)CC1 (centres unmarked) [2-(3-{4-[3-(4-Chlorophenyl)-1,1-dioxo-3H-benzo[d]isothiazol-2-yl]piperidin-1-yl}propyl)-isoindol-1,3-dione maleate] | 28.37 | 29.02 | 57.36 | – | – | – |
| O=C(O)/C=C\C(=O)O.O=S1(=O)c2ccccc2C(c2ccc(Cl)cc2)N1C1CCN(CCO)CC1 (centres unmarked) [2-{4-[3(4-Chlorophenyl)-1,1-dioxo-3H-benzo[d]isothiazol-2-yl]-piperidin-1-yl}-ethanol maleate] | 8.71 | 3.68 | 18.71 | – | – | – |
| Cl.O=S1(=O)c2ccccc2C(c2ccc(F)cc2)N1C1CCNCC1 (centres unmarked) [3-(4-Fluorophenyl)-2-(4-piperidinyl)-2,3-dihydrobenzo[d]isothiazole-1,1-dioxide hydrochloride] | 25.02 | 37.92 | 30.34 | – | – | – |
| CN(C)CCCN1c2ccccc2CCc2ccccc21 [[^3 H]-imipramine] | – | – | – | – | – | labelling of 5 HT uptake sites [5]: labels 5 HT uptakes sites |
| CC(NC(C)(C)C)C(=O)c1cccc(Cl)c1 (centres unmarked) [bupropion] | – | – | – | inhibit DA uptake | – | – |
| COC(=O)[C@H]1[C@@H](OC(=O)c2ccccc2)C[C@@H]2CC[C@H]1N2C [cocaine] | – | – | – | potently inhibited | potently inhibited | – |
| C[C@H](N)Cc1ccccc1 [d-amphetamine] | – | – | – | no stereo selectivity for the inhibition of DA uptake | – | – |
| CNCCCN1c2ccccc2CCc2ccccc21 [desipramine] | – | – | – | – | more active than the tertiary amines (e.g. imipramine) | – |
| C[C@@H]1O[C@@H](O[C@H]2C[C@@H](O)[C@]3(CO)[C@H]4[C@H](O)C[C@]5(C)[C@@H](C6=CC(=O)OC6)CC[C@]5(O)[C@@H]4CC[C@]3(O)C2)[C@H](O)[C@H](O)[C@H]1O [ouabain] | – | – | – | – | also inhibited | DA uptake inhibition [4]: potently inhibited |
| CC(COc1ccccc1)N(CCCl)Cc1ccccc1 (centres unmarked) [phenoxybenzarrine] | – | – | – | – | also inhibited | – |
| CN(C)C/C=C(/c1ccc(Br)cc1)c1cccnc1 [zimelidine] | – | – | – | – | – | 5 HT uptake inhibition [7]: fairly selective effects on 5 HT uptakes |
